In experiment [1] the test system is C57BL/6J mice switched on HFC diet. Kind of experiment: Long term effect of peptides on lipoprotein metabolism (7 days pumps, 160 hrs). The format is in vivo, mouse. The settings on record: 160 hrs infusion, pumps 1 μl/hr. As for the experimental part:
(§1) Effect of time-released peptides on plasma lipoprotein profile—To determine relatively long-term effect of SEQ ID NO: 1 and its derivatives on plasma lipoprotein profile, the Alzet Mini-Osmotic pumps (220 ul), containing various peptides or PBS, were surgically inserted in canulated Chow fed C57BL/6J mice. The pumps with flow rate equal to 8 μl/hr were used for 20 hrs continuous infusion of peptides. The pumps with flow rate equal to 1 μl/hr were used for 160 hrs continuous infusions of peptides. At the end point (20 or 160 hrs after pumps insertion) mice were sacrificed, and blood was drawn by retroorbital puncture and subjected to low speed centrifugation at 4° C. to obtain the plasma. Bile was immediately removed from gall bladders using insulin syringes, and stored on ice until use.
To determine HDL cholesterol, low density lipoproteins were precipitated from plasma using a modified Burstein-Samaille method according to manufacturer's instructions (Boehringer Mannheim 543004), modifying only the ratio of reagent:water from 4:1 to 4:2. Gall bladder derived bile was diluted twice with deionized water, and cholesterol was determined using. Infinity reagents. 3α-Hydroxybile acids were quantified uiising a colorimetric-enzymatic method (Sigma 450).
To monitor cholesterol distribution among the different lipoprotein classes, plasma samples were combined within each group (usually 4-6 mice per group), and subjected to FPLC size-exclusion chromatography on a Superose 6 (HR 10/30 column, Amersham-Pharmacia) using an isocratic 10 mM Tris/150 mM NaCl/1 mM EDTA buffer system at a flow rate of 0.15 ml/min. […] Total and free cholesterol in plasma fractions was determined by using the fluorescent method of W. Gamble, et al. (Gamble et al., 1978, Journal Lipid Res., 16: 1068-1070). 96-well plates were read on Dual-Scanning Microplate Spectrofluorometer Gemini XS (Molecular Devices). The areas under the lipoprotein peaks were quantified by using Unicorn software (Version 3.21.02). The amount of esterified cholesterol was assessed by subtraction of free cholesterol from total cholesterol. […]

Another experiment has as its target T1, PLTP (Mus musculus, UniProt P55065).
T1 construct: Mouse plasma (source of enzyme), obtained from Chow fed mice and from mice fed with high fat cholate containing diet; from tissue; host or cells: serum/plasma of C57BL/6J male mice (chow-fed or high fat cholate diet for 4 days)
Description: Effect of peptides on PLTP activity. The class given is biochemical. The settings on record: mouse plasma incubated with 0.4, 2, 5 and 10 ug peptide at RT for 30 min. The method, then:
Effect of peptides on PLTP activity—PLTP activity was measured using a fluorescent kit (Cardiovascular Targets, Inc., P7700). PLTP source was serum obtained from C57BL/6J male 2 months old mice, which were Chow-fed or maintained on high fat cholate containing diet for four days. 1× Mouse serum was preincubated with PBS or 0.4, 2, 5, and 10 μg of peptides at RT for 30 minutes. Following preincubation, the mixture was diluted 10 times, and 10 μl ([…] nest serum) was immediately mixed into reaction wells of pre-chilled 96-well plate, containing assay system (Cardiovascular Targets, Inc., P7700). The microplates were read at 37° C. in SpectraMax 190 (Molecular Devices), for 30 minutes.
Mouse plasma (source of enzyme), obtained from Chow fed mice and from mice fed with high fat cholate containing diet for 4 days, was incubated with PBS or the peptide of SEQ ID Nos: 34, 86, 91 and 96 (0.4, 2, 5, and 10 ug) at RT for 30 min. Reaction was started by addition of 0.3 μl of plasma/PBS or plasma/SEQ ID NO mixture to 100 μl of assay solution containing fluorescent substrate. PLTP activity was monitored on Spectrofluorometer for 20 min at 37° C. Each bar represents the Mean±SEM obtained from 3 independent experiments.

The subject of experiment [2] is C57BL/6J mice switched on HFC diet. Kind of experiment: Effect of time-released peptides on plasma lipoprotein profile (20 hrs pumps). The settings on record: for plasma HDL cholesterol levels / plasma levels of HDL phospholipids / plasma levels of low density lipoproteins: 20 hrs continuous infusion, pumps 8 ul/hr; for activity upon infusion into mice for 20 hrs: 20 hrs infusion, FIG. 16. The class given is in vivo, mouse. As for the experimental part: as §1
(§2) To monitor cholesterol distribution among the different lipoprotein classes, plasma samples were combined within each group (usually 4-6 mice per group), and subjected to FPLC size-exclusion chromatography on a Superose 6 (HR 10/30 column, Amersham-Pharmacia) using an isocratic 10 mM Tris/150 mM NaCl/1 mM EDTA buffer system at a flow rate of 0.15 ml/min. Fractions (0.15 ml) were collected into 96-well plates containing 0.055 ml of 1:1 mixture of 0.5% Triton X-100 and 20 mM Sodium Cholate. Total and free cholesterol in plasma fractions was determined by using the fluorescent method of W. Gamble, et al. (Gamble et al., 1978, Journal Lipid Res., 16: 1068-1070). 96-well plates were read on Dual-Scanning Microplate Spectrofluorometer Gemini XS (Molecular Devices). The areas under the lipoprotein peaks were quantified by using Unicorn software (Version 3.21.02). The amount of esterified cholesterol was assessed by subtraction of free cholesterol from total cholesterol.
To monitor the distribution of phospholipid among the lipoprotein classes, plasma samples were combined within each group (usually 4-6 mice per group), and subjected to agarose gel electrophoresis, which was carried out using the Paragon system (Beckman Coulter) according to manufacturer's instructions, with following staining with Paragon Lipo Stain (Beckman Coulter 655910). Once dried, the gels were scanned on Personal Densitometer SI (Molecular Dynamics) and bands were quantified using ImageQuant™ software (Verssion 5.2).
Impact of SEQ ID NO: 1 on lipoprotein metabolism (20 hrs pumps)—To determine relatively long-term effect of SEQ ID NO: 1 on plasma lipoprotein profile, the Alzet Mini-Osmotic pumps, containing SEQ ID NO: 1 or PBS, were surgically inserted in canculated Chow fed C57BL/6J mice. The pumps flow rate was equal to 8 ul per hr, which provided the delivery amount of SEQ ID NO: 1 per hr as indicated for FIG. 9. Mice were switched on HFC diet immediately after surgery. 20 hrs later plasma samples were obtained, combined within each group (4 to 6 mice), and subjected to FPLC analysis and agarose gel electrophoresis for assessment of cholesterol and phospholipid distribution among the lipoprotein classes. […] The LDL lowering effect was attenuated with increase of SEQ ID NO: 1 concentration. This phenomenon can be explained by self-competition between free and LDL-bound form of SEQ ID NO: 1 for the liver lipoprotein binding sites. In contrast, HDL cholesterol levels were positively correlated with SEQ ID NO: 1 concentration.
Impact of SEQ ID NO: 1 structural derivatives (3 to 13 amino acid residues) on lipoprotein metabolism (20 hrs pumps)—To determine relatively long-term effect on plasma lipoprotein profile, the Alzet Mini-osmotic pumps, containing SEQ ID NO: 1 derivatives or PBS, were surgically inserted in canulated Chow fed C57BL/6J mice. The pumps flow rate was equal to 8 ul per hr, which provided the deliveries of 30-40 μg of peptides per hr. Mice were switched on HFC diet immediately after surgery. […]

Experiment [3] relates to C57BL/6J mice fed a cholate-containing high fat diet (HFC). Description: Effect of single bolus injections of peptides on plasma lipoprotein profile. The format is in vivo, mouse. The conditions noted are these: single bolus i.v. 100 μg. The method, then:
Effect of single bolus injections of peptides on plasma lipoprotein profile—To monitor effect of peptides on plasma cholesterol levels and its distribution among the different lipoprotein classes, the nonradioiodinated free peptides (100 μg in 100 μl of PBS) were injected intravenously into the tail vein of nonfasted C57BL/6J wild type mice, which have been placed on high fat cholate-containing diet four days prior to experiment. To control for the effect of external- and/or internal nonspecific factors (stress of handling, anesthetic, blood drawing) on plasma lipoprotein profile, a similar group of mice was injected with only PBS. Different groups of mice were sacrificed before and at various times after injections and blood was drawn by retroorbital puncture and subjected to low speed centrifugation at 4° C. to obtain the plasma. Plasma samples were obtained, combined within each group (4 mice), and subjected to gel filtration chromatography on a Superose 6 (HR 10/30 column, FPLC) to monitor cholesterol lipoproteins distribution and agarose gel electrophoresis (Paragon Systems) to monitor phospholipid lipoproteins distribution.
as §2
Mice were divided into two groups—control and experimental. Each group contained 4 mice.
Effect of “frame-shift” derived peptides on lipoprotein metabolism (Single bolus injections)—We performed the functional frame-shift of the entire region of mouse apolipoprotein A1 where SEQ ID NO: 1 derived from (helix 6, Pro166-Pro188, precursor protein). Frame-shift was done in both directions (form N-to C- and from C- to N-Terminus). […] Mice were divided into two groups—control and experimental. Each group contained 4 mice. […] The data are expressed as percent of change of total cholesterol (TC) content of VLDL, IDL/LDL, and HDL classes in experimental mice relative to control (PBS injected) mice.
Effect of chemically modified derivatives of SEQ ID NO: 1 and peptides derived from other mouse apoA1 regions on mouse plasma lipoprotein profile (Single bolus injections)—To increase SEQ ID NO: 1 hydrophobicity, Phenyl Acetyl or Pivalic Acid were attached to N-Terminal Tyr residue of SEQ ID NO: 1, or Tyr residue was removed from N-terminus. […] Mice were divided into two groups—control and experimental. Each group contained 4 mice. […] The data are expressed as percent of change of total cholesterol (TC) content of VLDL, IDL/LDL, and HDL classes in experimental mice relative to control (PBS injected) mice.

Square brackets hold non-standard residues; d marks the D form. Ends that are not written are not given here. Bip = N[C@@H](Cc1ccc(-c2ccccc2)cc1)C(=O)O

T1 sequence (P55065 18-493): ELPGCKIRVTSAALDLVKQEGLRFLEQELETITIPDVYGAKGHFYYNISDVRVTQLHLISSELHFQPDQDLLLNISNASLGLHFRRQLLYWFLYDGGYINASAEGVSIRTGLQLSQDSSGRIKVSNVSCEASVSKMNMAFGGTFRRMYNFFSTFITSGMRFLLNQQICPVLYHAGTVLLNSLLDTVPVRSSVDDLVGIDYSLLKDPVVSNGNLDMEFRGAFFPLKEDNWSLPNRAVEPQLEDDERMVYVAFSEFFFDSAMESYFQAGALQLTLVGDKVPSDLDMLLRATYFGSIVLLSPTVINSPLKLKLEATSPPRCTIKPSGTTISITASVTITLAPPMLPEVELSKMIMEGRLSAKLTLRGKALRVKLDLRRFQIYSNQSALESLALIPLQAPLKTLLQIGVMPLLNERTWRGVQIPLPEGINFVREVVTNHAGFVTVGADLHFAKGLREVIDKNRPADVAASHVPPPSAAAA

Take E-BIP-R (Glu-[Bip]-Arg) [SEQ ID NO: 91]: the “amount of phospholipid in the HDL zone” value in experiment [1] is reported as “increase”. Besides, the “effect on PLTP activity” value with PLTP is given as “activation of PLTP”.
For the substance EEFRDR [SEQ ID NO: 87], in experiment [2], the “plasma HDL cholesterol levels” value is on record as “decrease”, the “plasma levels of HDL phospholipids” value is “decrease” and the “plasma levels of low density lipoproteins” value was “increase”.
As to EFR [SEQ ID NO: 34], the “amount of phospholipid in the HDL zone” value in experiment [1] is “increase”. Besides, the “effect on PLTP activity” value with PLTP was “activation of PLTP”.
Take “THVDSLRTQLAP (Ac-THVDSLRTQLAP-NH2) [SEQ ID NO: 7]”: the “impact on plasma HDL-C levels” value in experiment [3] was “marked HDL-C elevating properties”.
With dRMRTH ([dD]RMRTH) [SEQ ID NO: 36], the “activity upon infusion into mice for 20 hrs” value in experiment [2] is reported as “did not show significant activity”. Besides, the “effect on PLTP activity” value with PLTP is on record as “did not have any significant effect”.
In the case of efr ([dE]-[dF]-[dR]) [SEQ ID NO: 96], the “effect on PLTP activity” value with PLTP is “activation of PLTP”.
As to erf ([dE]-[dR]-[dF]) [SEQ ID NO: 86], the “amount of phospholipid in the HDL zone” value in experiment [1] is reported as “increase”. Further, the “effect on PLTP activity” value in the experiment with PLTP was “activation of PLTP”.
Take rDRMRTh ([dR]DRMRT[dH]) [SEQ ID NO: 35]: in experiment [2], the “plasma HDL cholesterol levels” value is “decrease”, the “plasma levels of HDL phospholipids” value is reported as “decrease”, the “plasma levels of low density lipoproteins” value was “increase” and the “activity upon infusion into mice for 20 hrs” value was “did not show significant activity”. The “effect on PLTP activity” value with PLTP was “did not have any significant effect”.

The values are drawn from US20050159362A1, “Mediators of reverse cholesterol transport for the treatment of hypercholesterolemia” (priority 2003, published 2005).
